Source: US5830851A (Affymax Technologies N.V., priority 1995, dated 1998)
“Also recorded” adds a separate entry of the source. Residues, ends and D or L forms follow the SMILES beside them. No end group written: not given here.

Key:
[1] = molecular target: T1, truncated human erythropoietin receptor (Homo sapiens, UniProt P19235); test: cell-based
T1 sequence (P19235 25-468 limits assumed): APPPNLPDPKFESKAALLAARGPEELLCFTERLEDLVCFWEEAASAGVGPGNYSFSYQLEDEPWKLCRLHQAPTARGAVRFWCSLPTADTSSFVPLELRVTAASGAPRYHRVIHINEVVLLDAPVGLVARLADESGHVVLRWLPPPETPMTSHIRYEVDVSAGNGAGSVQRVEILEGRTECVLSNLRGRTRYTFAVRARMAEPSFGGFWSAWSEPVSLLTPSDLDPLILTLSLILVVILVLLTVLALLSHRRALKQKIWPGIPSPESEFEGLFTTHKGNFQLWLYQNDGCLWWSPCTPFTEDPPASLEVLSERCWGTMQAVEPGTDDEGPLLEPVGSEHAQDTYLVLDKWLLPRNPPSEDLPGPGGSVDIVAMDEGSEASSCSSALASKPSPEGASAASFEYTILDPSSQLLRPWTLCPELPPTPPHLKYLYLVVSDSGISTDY
Protocol: Cells are counted and resuspended at a concentration of 800,000 cells/ml. Approximately forty thousand cells (50μ) are added to each well of a 96 well microtiter plate. Peptide is added to each well in triplicate. A standard dose response determination is run with each series of peptides. After a forty-two hr incubation (≈2 doubling), each well is pulsed with 1 μCi/well Thymidine. Cells are incubated an additional six hr at which time cells are harvested and counted to assess thymidine incorporation as an indicator of cell proliferation.

[2] = molecular target: T2, extracellular domain of the human erythropoietin receptor (EPO binding protein, EBP) (Homo sapiens, UniProt P19235); test: Immobilized EBP based [125I]EPO competition binding assay; details: IC50 relative to RWJ61233 (IC50 of 5 μM)
T2 construct: made in house; host or cells: E. coli
T2 sequence (P19235 25-250 limits assumed): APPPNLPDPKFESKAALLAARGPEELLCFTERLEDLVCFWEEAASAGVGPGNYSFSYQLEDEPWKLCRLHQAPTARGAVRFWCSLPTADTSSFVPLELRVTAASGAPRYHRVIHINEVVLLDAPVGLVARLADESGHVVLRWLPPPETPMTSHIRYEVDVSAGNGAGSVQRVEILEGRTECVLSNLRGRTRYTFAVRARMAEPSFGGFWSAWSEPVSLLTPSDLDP
Protocol: The iodoacetyl activation chemistry of Sufolink beads (Pierce Chemical Co, Rockford, Ill.) is specific for free thiols and assures that the linkage is not easily reversible. EBP-Sulfolink beads were made as follows: SulfoLink gel suspension (10 ml) was mixed with coupling buffer (40 ml: 50 mM Tris, pH 8.3, 5 mM EDTA) and the gel was allowed to settle. The supernatant was removed and the EBP (0.3-1 mg/ml in coupling buffer) to be bound was added directly to the washed beads. The mixture was rocked gently for 30 minutes at room temperature, and the beads were allowed to settle for 1 hour at room temperature. […] The amount of EBP which was covalently bound to the beads was determined by comparing the OD280 of the original EBP solution to the total OD280 recovered in the reaction supernatant and the two 20 ml washes.
Binding assays were initiated by the addition of EBP beads (50 μl) to individual reaction tubes. […] The tubes were incubated for five hours (a time period experimentally determined as adequate for the establishment of equilibrium) at room temperature with gentle rocking. […]
Competitive binding analysis assays of candidate peptides were performed as outlined below. […] The columns containing the washed beads were placed in 12×75 mm glass tubes and bound radioactivity levels were determined using a gamma counter.

[3] = molecular target: T3, human EPO-R (FDCP-1/hEPO-R cells) (Homo sapiens, UniProt P19235); test: FDCP-1/hEPO-R cell proliferation bioassay; type: cell-based
T3 construct: expressed in transfected cells; host or cells: FDCP-1 (murine hematopoietic progenitor cell line)
T3 sequence (P19235 25-508): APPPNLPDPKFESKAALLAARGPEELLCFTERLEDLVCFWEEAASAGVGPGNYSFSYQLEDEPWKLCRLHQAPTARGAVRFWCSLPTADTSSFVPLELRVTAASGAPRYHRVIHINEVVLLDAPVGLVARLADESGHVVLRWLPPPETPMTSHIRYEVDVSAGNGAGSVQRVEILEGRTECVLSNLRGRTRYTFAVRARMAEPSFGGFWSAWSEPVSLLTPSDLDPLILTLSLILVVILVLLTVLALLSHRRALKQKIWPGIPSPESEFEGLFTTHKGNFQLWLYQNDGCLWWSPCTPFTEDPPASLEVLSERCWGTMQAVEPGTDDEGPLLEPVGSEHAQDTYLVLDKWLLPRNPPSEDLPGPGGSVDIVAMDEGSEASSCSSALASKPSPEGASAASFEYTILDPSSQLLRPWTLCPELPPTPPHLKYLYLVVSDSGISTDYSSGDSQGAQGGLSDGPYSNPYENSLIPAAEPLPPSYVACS
Protocol: One assay utilized FDCP-1, a growth factor dependent murine multi-potential primitive hematopoietic progenitor cell line (see, e.g., Dexter et al. (1980) J. Exp. Med. 152:1036-1047), as the parental cell line. This cell line can proliferate, but not differentiate, when supplemented with WEHI3-conditioned media (a medium that contains IL-3, ATCC number T1B68).
In brief, the cells are grown to half stationary density in the presence of the necessary growth factors. The cells are then washed in PBS and starved for 16-24 hours in whole media without the growth factors. After determining the viability of the cells, stock solutions (in whole media without the growth factors) are made to give about 10^5 cells per 50 microliters. […] Cells (50 microliters) are added to each well and the cells are incubated 24-48 hours, at which point the negative controls should die or be quiescent. Cell proliferation is then measured by techniques known in the art, such as an MTT assay which correlates with ^3 H-thymidine incorporation as an indication of cell proliferation (see, Mosmann (1983) J. Immunol. Methods 65:55).

`CC(C)C[C@@H]1NC(=O)[C@@H]2CCCN2C(=O)CNC(=O)[C@H](Cc2ccccc2)NC(=O)[C@H](Cc2c[nH]cn2)NC(=O)[C@@H](NC(=O)[C@H](CO)NC(=O)[C@H](Cc2ccc([N+](=O)[O-])cc2)NC(=O)[C@@H](NC(=O)CNC(=O)CN)[C@@H](C)O)CSSC[C@@H](C(=O)N[C@@H](CCCCN)C(=O)N2CCC[C@H]2C(=O)N[C@@H](CCC(N)=O)C(=O)NCC(=O)NCC(N)=O)NC(=O)[C@H](C(C)C)NC(=O)[C@H](Cc2c[nH]c3ccccc23)NC(=O)[C@H]([C@@H](C)O)NC1=O` [RWJ 61894, GGTXSCHFGPLTWVCKPQGG] (HELM PEPTIDE1{G.G.T.[O=C([C@H](Cc1ccc([N+](=O)[O-])cc1)N[*:1])[*:2]].S.C.H.F.G.P.L.T.W.V.C.K.P.Q.G.G.[am]}$PEPTIDE1,PEPTIDE1,6:R3-15:R3$$$V2.0) was tested, and the EC50 [1] was 800 nM.
For `CC(=O)NCC(=O)NCC(=O)N[C@H](C(=O)N[C@@H](Cc1ccc(O)cc1)C(=O)N[C@@H](CO)C(=O)N[C@H]1CSSC[C@@H](C(=O)N[C@@H](CCCCN)C(=O)N2CCC[C@H]2C(=O)N[C@@H](CCC(N)=O)C(=O)NCC(=O)NCC(N)=O)NC(=O)[C@H](C(C)C)NC(=O)[C@H](Cc2c[nH]c3ccccc23)NC(=O)[C@H]([C@@H](C)O)NC(=O)[C@H](CC(C)C)NC(=O)[C@@H]2CCCN2C(=O)CNC(=O)[C@H](Cc2ccccc2)NC(=O)[C@H](Cc2c[nH]cn2)NC1=O)[C@@H](C)O` [RWJ 62146] (HELM PEPTIDE1{[ac].G.G.T.Y.S.C.H.F.G.P.L.T.W.V.C.K.P.Q.G.G.[am]}$PEPTIDE1,PEPTIDE1,7:R3-16:R3$$$V2.0), the “Relative Binding” value [2] was 4.
Work on `CC(C)C[C@@H]1NC(=O)[C@@H]2CCCN2C(=O)CNC(=O)[C@H](Cc2ccccc2)NC(=O)[C@H](Cc2c[nH]cn2)NC(=O)[C@@H](NC(=O)[C@H](CO)NC(=O)[C@H](Cc2ccc(O)cc2)NC(=O)[C@@H](NC(=O)CNC(=O)CN)[C@@H](C)O)CSSC[C@@H](C(=O)N[C@@H](CCCCN)C(=O)N2CCC[C@H]2C(=O)N[C@@H](CCC(N)=O)C(=O)NCC(=O)NCC(=O)N[C@@H](CO)C(=O)N[C@@H](CO)C(=O)N[C@@H](CCCCNC(=O)CCCCCNC(=O)CCCC[C@@H]2SC[C@@H]3NC(=O)N[C@@H]32)C(N)=O)NC(=O)[C@H](C(C)C)NC(=O)[C@H](Cc2c[nH]c3ccccc23)NC(=O)[C@H]([C@@H](C)O)NC1=O` [AF11505] (HELM PEPTIDE1{G.G.T.Y.S.C.H.F.G.P.L.T.W.V.C.K.P.Q.G.G.S.S.K.[am]}|PEPTIDE2{[O=C1N[C@H]2[C@H](CS[C@H]2CCCCC(=O)[*:2])N1].[O=C(CCCCCN[*:1])[*:2]]}$PEPTIDE1,PEPTIDE2,23:R3-2:R2|PEPTIDE1,PEPTIDE1,6:R3-15:R3$$$V2.0; N-terminus and C-terminus assumed; bridges inferred) yielded an EC50 ([3]; free peptides, read-out: EPO-ED50) of ~1000 nM.
With `CC(C)C[C@@H]1NC(=O)[C@@H]2CCCN2C(=O)CNC(=O)[C@H](Cc2ccccc2)NC(=O)[C@H](Cc2c[nH]cn2)NC(=O)[C@@H](NC(=O)[C@H](CO)NC(=O)[C@H](Cc2ccc(N)cc2)NC(=O)[C@@H](NC(=O)CNC(=O)CN)[C@@H](C)O)CSSC[C@@H](C(=O)N[C@@H](CCCCN)C(=O)N2CCC[C@H]2C(=O)N[C@@H](CCC(N)=O)C(=O)NCC(=O)NCC(N)=O)NC(=O)[C@H](C(C)C)NC(=O)[C@H](Cc2c[nH]c3ccccc23)NC(=O)[C@H]([C@@H](C)O)NC1=O` [RWJ 62019, GGTXSCHFGPLTWVCKPQGG] (HELM PEPTIDE1{G.G.T.[Nc1ccc(C[C@H](N[*:1])C(=O)[*:2])cc1].S.C.H.F.G.P.L.T.W.V.C.K.P.Q.G.G.[am]}$PEPTIDE1,PEPTIDE1,6:R3-15:R3$$$V2.0) the EC50 [1] was 3000 nM.
For “Streptavidin: streptavidin alone, control for the complex [reference compound]”, the stimulatory effect alone ([3]; tested without peptide) was “some small stimulatory effect at the highest concentrations; also recorded: marginal activity at high concentrations”.
With “GGTYSCHFGPLTWVCKPQGGSSK+G anti-B: biotinylated peptide preincubated with purified goat anti-biotin IgG at a 2:1 molar ratio (cysteine pairing not given here; also: biotinylated, site not given here, preincubated with goat anti-biotin IgG at 2:1 molar ratio)” the “reduction in EPO-ED50 / increase in potency over the free peptide” value [3] was “one log reduction”.
For “RWJ 61721: sequence analog peptide shown only as a drawing in Table 19 (GGTYSEHFGPLTWVKKPQGG)”, the “Relative Binding” value [2] was > 100.
